Columns and labels:
E2F-1 = experiment: Western blotting assay of E2F-1 in DBTRG 05MG cells; assay type: cell-based, human; details: 3 days, lovastatin (1 μM) alone
Procedure: (§1) Cell cycle-regulating proteins, cyclin-dependent kinase 2 (CDK-2), cyclin A, Rb protein, and p27^kip1 were tested to determine the effect of lovastain and troglitazone on regulating the cell cycle. Note that p27^kip1 is a universal CDK inhibitor and can modulate the drug resistance of cancer cells (Lloyd, R. V., Am. J. Pathol. 1999, 154: 313-323). Rb binds to many proteins, including several important gene regulatory proteins. Its binding capacity depends on its state of phosphoration. When Rb is dephosphorated, it binds to a set of regulatory proteins (e.g., E2F-1) that favor cell proliferation; and when phosphorated, it releases these proteins, thereby allowing them to act. […] The concentrations of cyclin-dependent kinase 2 (CDK-2), cyclin A, p27^kip1, Rb protein, and E2F-1 were determined by the Western blotting assay. Briefly, whole cell lysates were prepared with a radioimmunoprecipitation buffer supplemented with protease inhibitors (Sigma). The lysates were subjected to a sodium dodecylsulfate-polyacrylamide gel electrophoresis and transferred to polyvinylidene difluoride membranes (Bio-Rad) by electroblotting. After having been blocked for 1 hour at room temperature, the membranes were probed with a primary antibody overnight at 4° C. and then with a horseradish peroxidase-conjugated secondary antibody for 1 hour. […]

cyclin A = experiment: Western blotting assay of cyclin A in DBTRG 05MG cells; assay type: cell-based, human; details: 3 days, lovastatin (1 μM) alone
Procedure: as §1

Rb protein = experiment: Western blotting assay of Rb and phosphor-Rb (Ser807/811) in DBTRG 05MG cells; assay type: cell-based, human; details: 3 days, lovastatin (1 μM) alone
Procedure: as §1

p27^kip1 = experiment: Western blotting assay of p27^kip1 in DBTRG 05MG cells; assay type: cell-based, human; details: 3 days, lovastatin (1 μM) alone
Procedure: as §1

[1] = system: DBTRG 05MG cells (human glioblastoma cells); experiment: sulforhodamine assay of cell numbers, DBTRG 05MG cells; assay type: cell-based; details: 6 days
Procedure: DBTRG 05MG cells (human glioblastoma cells) were treated for 6 days with 0.5 μM of lovastatin (Clabiochem) alone and 10 μM of troglitazone (Clabiochem) alone. Cell numbers were then measured by the sulforhodamine assay (see, e.g., Rubinstein, L. V. et al., J. Natl. Cancer Institute, 1990, 82: 113).
The same cells were also treated with combinations of lovastatin and troglitazone at various ratios. The combination index values were calculated.
DBTRG 05MG cells were treated for 6 days with lovastatin (0.5 μM), troglitazone (10 μM), and mevalonolacetone (100 μM), the downstream product of […]. Cell numbers were measured by the sulforhodamine assay (see, e.g., Rubinstein, L. V. et al., J. Natl. Cancer Institute, 1990, 82: 113).

[2] = system: cyclin-dependent kinase 2 (CDK-2); experiment: Western blotting assay of CDK-2 in DBTRG 05MG cells; assay type: cell-based, human; details: 3 days, lovastatin (1 μM) alone
Procedure: as §1

SMILES: CC[C@H](C)C(=O)O[C@H]1C[C@@H](C)C=C2C=C[C@H](C)[C@H](CC[C@@H]3C[C@@H](O)CC(=O)O3)[C@H]21 [lovastatin]
- level of E2F-1 (E2F-1): little or no change
- level of cyclin A (cyclin A): little or no change
- level of Rb (Rb protein): little or no change
- level of p27^kip1 (p27^kip1): little or no change
- cell number decrease ([1]; 0.5 μM of lovastatin alone): 9.7%
- level of CDK-2 [2]: little or no change

SMILES: C[C@@]1(O)CCOC(=O)C1 [mevalonolacetone]
- effect of added mevalonolacetone on the synergistic effect of lovastatin and troglitazone on cell numbers ([1]; lovastatin (0.5 μM), troglitazone (10 μM), mevalonolacetone (100 μM)): significantly attenuated

SMILES: Cc1c(C)c2c(c(C)c1O)CCC(C)(COc1ccc(CC3SC(=O)NC3=O)cc1)O2 (centres unmarked) [troglitazone]
- cell number decrease ([1]; 10 μM of troglitazone alone): 11%

Source: patent publication US20090082406A1, “Cancer Therapy” (National Health Research Institutes, priority 2004, published 2009)
